Measurements: ChEMBL document CHEMBL4825684, “Design, synthesis and biological evaluation of N-anthraniloyl tryptamine derivatives as pleiotropic molecules for the therapy of malignant glioma” (Eur J Med Chem, 2021)
Calls of active or inactive are those of the source. The calls are words filed in the database; no cut-off is given here.

Columns and labels:
U-87 MG [1] = experiment: Antiproliferative activity against human U-87 MG cells assessed as growth inhibition incubated for 72 hrs by CCK-8 assay; format: functional, cell-based, U-87MG ATCC
[2] = target: Signal transducer and activator of transcription 3 (Homo sapiens) (UniProt P40763); experiment: Inhibition of STAT3 nuclear translocation in human U251 cells incubated for 24 hrs by Hoechst staining based fluorescence confocal imaging analysis; format: cell-based; settings: U-251
[3] = target: Signal transducer and activator of transcription 3 (Homo sapiens) (UniProt P40763); experiment: Inhibition of STAT3 nuclear translocation in human U-87 MG cells incubated for 24 hrs by Hoechst staining based fluorescence confocal imaging analysis; format: cell-based
[4] = target: Tyrosine-protein kinase JAK2 (Homo sapiens) (UniProt O60674); experiment: Inhibition JAK2 phosphorylation in human U-251 cells incubated up to 8 hrs by Western blot analysis; format: cell-based; settings: time hrs <=8
[5] = target: Signal transducer and activator of transcription 3 (Homo sapiens) (UniProt P40763); experiment: Inhibition STAT3 phosphorylation in human U-251 cells incubated up to 8 hrs by Western blot analysis; format: cell-based; settings: time hrs <=8
U-251 [6] = experiment: Antiproliferative activity against human U-251 cells assessed as colony formation ratio at 4 uM measured after 24 hrs by plate clone formation assay relative to control; format: functional
U-251 [7] = experiment: Cytotoxicity against human U-251 cells assessed as cell viability at 4 uM measured up to 24 hrs; format: functional; settings: U-251, 24 h, time hrs <=24, read-out: Activity
U-87 MG [8] = experiment: Cytotoxicity against human U-87 MG cells assessed as cell viability at 4 uM measured up to 24 hrs; format: functional, U-87MG ATCC; settings: time hrs <=24, read-out: Activity
U-251 [9] = experiment: Cell cycle arrest in human U-251 cells assessed as accumulation at G2/M phase at 8 uM incubated for 48 hrs by PI staining based flow cytometry assay (reference value: 11.9%); format: functional
U-251 [10] = experiment: Induction of apoptosis in human U-251 cells assessed as early apoptotic cells at 2 uM incubated for 48 hrs by […] double staining based flow cytometry assay (reference value: 0.73%); format: functional
U-251 [11] = experiment: Induction of apoptosis in human U-251 cells assessed as late apoptotic cells at 2 uM incubated for 48 hrs by […] double staining based flow cytometry assay (reference value: 1.39%); format: functional
U-251 [12] = experiment: Induction of apoptosis in human U-251 cells assessed as necrotic cells at 2 uM incubated for 48 hrs by […] double staining based flow cytometry assay (reference value: 1.32%); format: functional
U-251 [13] = experiment: Induction of apoptosis in human U-251 cells assessed as late apoptotic cells at 4 uM incubated for 48 hrs by […] double staining based flow cytometry assay (reference value: 1.39%); format: functional
U-251 [14] = experiment: Induction of apoptosis in human U-251 cells assessed as necrotic cells at 4 uM incubated for 48 hrs by […] double staining based flow cytometry assay (reference value: 1.32%); format: functional
U-251 [15] = experiment: Induction of apoptosis in human U-251 cells assessed as late apoptotic cells at 8 uM incubated for 48 hrs by […] double staining based flow cytometry assay (reference value: 1.39%); format: functional
U-87 MG [16] = experiment: Induction of apoptosis in human U-87 MG cells assessed as early apoptotic cells at 2 uM incubated for 48 hrs by […] double staining based flow cytometry assay (reference value: 0.63%); format: functional, U-87MG ATCC
U-87 MG [17] = experiment: Induction of apoptosis in human U-87 MG cells assessed as late apoptotic cells at 2 uM incubated for 48 hrs by […] double staining based flow cytometry assay (reference value: 0.61%); format: functional, U-87MG ATCC
U-87 MG [18] = experiment: Induction of apoptosis in human U-87 MG cells assessed as necrotic cells at 2 uM incubated for 48 hrs by […] double staining based flow cytometry assay (reference value: 0.91%); format: functional, U-87MG ATCC
U-87 MG [19] = experiment: Induction of apoptosis in human U-87 MG cells assessed as viable cells at 4 uM incubated for 48 hrs by Annexin VIM double staining based flow cytometry assay (reference value: 97.8%); format: functional, U-87MG ATCC; settings: read-out: Activity
U-87 MG [20] = experiment: Induction of apoptosis in human U-87 MG cells assessed as necrotic cells at 4 uM incubated for 48 hrs by Annexin VIM double staining based flow cytometry assay (reference value: 0.91%); format: functional, U-87MG ATCC
U-87 MG [21] = experiment: Induction of apoptosis in human U-87 MG cells assessed as decrease in Bcl2/Bax ratio at 2 to 4 uM incubated for 48 hrs by Western blot analysis relative to control; format: functional, cell-based; settings: U-87MG ATCC, dose 2-4 µM
U-87 MG [22] = experiment: Induction of apoptosis in human U-87 MG cells assessed as increase in cytochrome c release at 1 to 4 uM incubated for 48 hrs by Western blot analysis relative to control; format: functional, cell-based; settings: U-87MG ATCC, dose 1-4 µM
U-251 [23] = experiment: Induction of apoptosis in human U-251 cells assessed as increase in ROS generation at 1 to 4 uM incubated for 48 hrs […] relative to control; format: functional, cell-based; settings: dose 1-4 µM
U-87 MG [24] = experiment: Induction of apoptosis in human U-87 MG cells assessed as increase in ROS generation at 1 to 4 uM incubated for 48 hrs by Western blot analysis relative to control; format: functional, cell-based; settings: U-87MG ATCC, dose 1-4 µM
U-87 MG [25] = experiment: Antimigratory activity against human U-87 MG cells assessed as inhibition of migration incubated for 24 hrs by matrigel trans well plate assay; format: functional, cell-based; settings: U-87MG ATCC
U-251 [26] = experiment: Anti-invasion activity against human U-251 cells assessed as inhibition of invasion incubated for 24 hrs by matrigel trans well plate assay; format: functional, cell-based; settings: dose 1-4 µM
U-87 MG [27] = experiment: Anti-invasion activity against human U-87 MG cells assessed as inhibition of invasion incubated for 24 hrs by matrigel trans well plate assay; format: functional, cell-based; settings: U-87MG ATCC
[28] = Acute toxicity in Kunming mouse assessed mortality at 1000 mg/kg, ip measured for 14 days; format: organism-based; settings: in vivo, 336 h, time 14 day
[29] = Acute toxicity in Kunming mouse assessed behavioural changes at 1000 mg/kg, ip measured for 14 days; format: organism-based; settings: in vivo, 336 h, time 14 day
[30] = Cmax in Sprague-Dawley rat at 60 mg/kg, ip measured up to 24 hrs by LC-MS analysis; format: ADME, organism-based; parameters: route intraperitoneal, dose 60 mg/kg, time <=24; settings: in vivo
[31] = AUC (0 to t) in Sprague-Dawley rat at 60 mg/kg, ip measured up to 24 hrs by LC-MS analysis; format: ADME, organism-based; parameters: route intraperitoneal, dose 60 mg/kg, time <=24; settings: in vivo
[32] = Plasma concentration in Sprague-Dawley rat at 60 mg/kg, ip measured after 2 hrs by LC-MS analysis; format: ADME, organism-based
[33] = Toxicity in rat C6 cells inoculated orthotopic Sprague-Dawley rat model at 50 mg/kg, ip twice a day administered for 25 days; format: organism-based; settings: in vivo, 600 h, time 25 day
C6 [34] = experiment: Antitumor activity against rat C6 cells inoculated orthotopic Sprague-Dawley rat model assessed as reduction tumor weight at 50 mg/kg, ip twice a day treated 3 days after tumor cell injection measured for 13 days after tumor implantation; format: functional, organism-based; settings: time 3.0 day
C6 [35] = experiment: Antitumor activity against rat C6 cells inoculated orthotopic Sprague-Dawley rat model assessed as reduction tumor volume at 50 mg/kg, ip twice a day treated 3 days after tumor cell injection measured for 13 days after tumor implantation; format: functional, organism-based; settings: time 3.0 day
[36] = Toxicity in rat C6 cells inoculated orthotopic Sprague-Dawley rat model assessed as autonomic movement at 50 mg/kg, ip twice a day administered for 13 days of tumor implantation by open field test; format: organism-based; settings: in vivo, 312 h, time 13 day
C6 [37] = experiment: Antitumor activity against rat C6 cells inoculated orthotopic Sprague-Dawley rat model assessed as tumor necrosis at 50 mg/kg, ip twice a day administered for 13 days of tumor implantation by hematoxylin-eosin staining analysis; format: functional, organism-based; settings: time 13.0 day

Chain of Signal transducer and activator of transcription 3 (Homo sapiens) (P40763 whole entry): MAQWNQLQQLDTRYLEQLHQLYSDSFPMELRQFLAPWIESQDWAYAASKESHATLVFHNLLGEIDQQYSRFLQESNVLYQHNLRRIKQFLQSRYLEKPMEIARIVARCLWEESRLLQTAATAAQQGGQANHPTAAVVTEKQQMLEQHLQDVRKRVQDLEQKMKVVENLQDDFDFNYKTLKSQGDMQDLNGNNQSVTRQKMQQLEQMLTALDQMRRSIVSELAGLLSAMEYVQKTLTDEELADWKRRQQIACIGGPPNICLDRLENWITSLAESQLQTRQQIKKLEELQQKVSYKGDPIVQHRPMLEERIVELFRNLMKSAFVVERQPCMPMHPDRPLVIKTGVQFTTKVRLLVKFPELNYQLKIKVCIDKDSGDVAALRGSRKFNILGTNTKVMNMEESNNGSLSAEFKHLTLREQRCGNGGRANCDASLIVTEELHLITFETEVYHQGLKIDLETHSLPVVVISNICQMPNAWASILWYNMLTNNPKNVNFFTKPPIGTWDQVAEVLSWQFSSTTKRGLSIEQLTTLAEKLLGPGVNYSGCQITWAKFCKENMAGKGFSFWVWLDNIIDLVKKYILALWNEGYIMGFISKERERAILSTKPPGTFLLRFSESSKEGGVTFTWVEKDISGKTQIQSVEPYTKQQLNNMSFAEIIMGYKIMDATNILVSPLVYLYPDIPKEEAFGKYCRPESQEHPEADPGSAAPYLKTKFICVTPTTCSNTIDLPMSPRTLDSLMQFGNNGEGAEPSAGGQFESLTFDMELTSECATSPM
Chain of Tyrosine-protein kinase JAK2 (Homo sapiens) (O60674 whole entry): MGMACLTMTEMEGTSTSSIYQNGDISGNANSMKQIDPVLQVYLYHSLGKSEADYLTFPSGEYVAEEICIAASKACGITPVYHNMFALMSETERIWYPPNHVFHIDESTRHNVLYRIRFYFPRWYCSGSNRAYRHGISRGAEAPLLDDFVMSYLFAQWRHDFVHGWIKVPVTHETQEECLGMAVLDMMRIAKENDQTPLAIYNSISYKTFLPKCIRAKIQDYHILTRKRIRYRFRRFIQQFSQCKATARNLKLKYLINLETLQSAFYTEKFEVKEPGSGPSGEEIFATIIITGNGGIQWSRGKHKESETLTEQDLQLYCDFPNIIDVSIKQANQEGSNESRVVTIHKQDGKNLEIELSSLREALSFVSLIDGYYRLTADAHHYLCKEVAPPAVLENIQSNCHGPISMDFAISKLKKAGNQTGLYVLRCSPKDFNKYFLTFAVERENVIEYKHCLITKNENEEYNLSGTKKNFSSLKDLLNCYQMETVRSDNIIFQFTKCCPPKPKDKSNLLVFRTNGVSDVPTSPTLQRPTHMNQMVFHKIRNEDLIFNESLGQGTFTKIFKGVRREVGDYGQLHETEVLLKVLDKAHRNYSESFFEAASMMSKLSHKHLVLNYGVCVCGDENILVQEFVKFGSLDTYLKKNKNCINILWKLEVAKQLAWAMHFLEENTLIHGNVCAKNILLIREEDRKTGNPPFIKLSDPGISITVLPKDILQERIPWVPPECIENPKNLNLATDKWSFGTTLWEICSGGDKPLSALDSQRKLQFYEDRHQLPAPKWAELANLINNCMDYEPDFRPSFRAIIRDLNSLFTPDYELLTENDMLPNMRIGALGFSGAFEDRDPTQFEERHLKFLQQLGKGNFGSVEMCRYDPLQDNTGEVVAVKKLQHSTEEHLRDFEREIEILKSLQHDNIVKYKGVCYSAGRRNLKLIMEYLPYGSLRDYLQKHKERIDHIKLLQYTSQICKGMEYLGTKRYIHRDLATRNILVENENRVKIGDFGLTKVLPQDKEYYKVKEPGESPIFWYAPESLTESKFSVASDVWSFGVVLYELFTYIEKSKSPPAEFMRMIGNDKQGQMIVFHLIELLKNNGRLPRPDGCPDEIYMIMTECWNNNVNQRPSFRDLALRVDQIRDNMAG

With `COc1cc(Nc2ccccc2C(=O)NCCc2c[nH]c3ccccc23)cc(OC)c1OC` the IC50 (U-87 MG [1]) was 4.78 µM, the inhibition [2] was “Active” and the inhibition [3] was “Active”. For the same compound, the inhibition [4] was “Active”, the inhibition [5] was “Active” and the Activity (U-251 [6]) was 5.33%. For the same compound, the viability at 4 µM (U-251 [7]) was 80%, the viability at 4 µM (U-87 MG [8]) was 80% and the Activity (U-251 [9]) was 63.7%. The Activity (U-251 [10]) was 4.93%, the Activity (U-251 [11]) was 17.4% and the Activity (U-251 [12]) was 4.28%. The Activity (U-251 [13]) was 21.8%, the Activity (U-251 [14]) was 4.78% and the Activity (U-251 [15]) was 26.2%. The Activity (U-87 MG [16]) was 2.17%, the Activity (U-87 MG [17]) was 1.53% and the Activity (U-87 MG [18]) was 1.23%. For the same compound, the viability at 4 µM (U-87 MG [19]) was 88.5%, the Activity (U-87 MG [20]) was 1.86% and the Activity (U-87 MG [21]) was “Active”. For the same compound, the Activity (U-87 MG [22]) was “Active”, the Activity (U-251 [23]) was “Active” and the Activity (U-87 MG [24]) was “Active”. For the same compound, the Activity (U-87 MG [25]) was “Active”, the Activity (U-251 [26]) was “Active” and the Activity (U-87 MG [27]) was “Active”. The Activity [28] was “Non-Toxic”, the Activity [29] was “Non-Toxic” and the Cmax [30] was 1150 ng/mL. For the same compound, the AUC(0-t) at 24 h [31] was 7330 ng·h/mL, the concentration at 2 h [32] was 520 ng/mL and the Activity [33] was “Non-Toxic”. The Activity (C6 [34]) was “Active”, the Activity (C6 [35]) was “Active” and the Activity [36] was “Non-Toxic”. The Activity (C6 [37]) was “Active”.
